Measured values: ChEMBL document CHEMBL1141809, “Antioxidative phenolic glycosides from sage (Salvia officinalis)” (J Nat Prod, 1999)

Columns and labels:
[1] = test system: Radical scavenging activity; assay: Antioxidant activity assessed as DPPH radical scavenging activity after 0.5 hrs; type: functional
[2] = Antioxidant activity assessed as trolox equivalent of ABTS radical scavenging activity in aqueous phase by metmyoglobin assay; type: functional

Row | IC50 [1] | SMILES | Activity [2]
1 | 20.1 µM | O=C(/C=C/c1ccc(O)c(O)c1)OC[C@H]1O[C@H](O[C@]2(CO)O[C@H](CO)[C@@H](O)[C@@H]2O)[C@H](O)[C@@H](O)[C@@H]1O | 3.7
2 | 19.8 µM | O=C(/C=C/c1ccc(O)c(O)c1)O[C@H]1O[C@@H](CO[C@H]2OC[C@@](O)(CO)[C@@H]2O)[C@H](O)[C@@H](O)[C@@H]1O | 3.86
